PMC6934184, “Selective DNA-PKcs inhibition extends the therapeutic index of localized radiotherapy and chemotherapy” (The Journal of Clinical Investigation, 2019)

Target: T1, ADRBK1 (GRK2) (Homo sapiens, UniProt P25098)
T1 construct: purchased Thermo Fisher Scientific (Life Technologies) SelectScreen
Assay: SelectScreen Z'LYTE
Assay type: biochemical
How it was run: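 NU5455 was profiled across the SelectScreen Broad panel of kinase activity and binding assays. Z'LYTE reactions such as CSF1R ran at apparent Km ATP, while the Adapta CAMK1 assay used ATP listed as 10. Values are given as percent.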

T1 sequence (P25098 whole entry): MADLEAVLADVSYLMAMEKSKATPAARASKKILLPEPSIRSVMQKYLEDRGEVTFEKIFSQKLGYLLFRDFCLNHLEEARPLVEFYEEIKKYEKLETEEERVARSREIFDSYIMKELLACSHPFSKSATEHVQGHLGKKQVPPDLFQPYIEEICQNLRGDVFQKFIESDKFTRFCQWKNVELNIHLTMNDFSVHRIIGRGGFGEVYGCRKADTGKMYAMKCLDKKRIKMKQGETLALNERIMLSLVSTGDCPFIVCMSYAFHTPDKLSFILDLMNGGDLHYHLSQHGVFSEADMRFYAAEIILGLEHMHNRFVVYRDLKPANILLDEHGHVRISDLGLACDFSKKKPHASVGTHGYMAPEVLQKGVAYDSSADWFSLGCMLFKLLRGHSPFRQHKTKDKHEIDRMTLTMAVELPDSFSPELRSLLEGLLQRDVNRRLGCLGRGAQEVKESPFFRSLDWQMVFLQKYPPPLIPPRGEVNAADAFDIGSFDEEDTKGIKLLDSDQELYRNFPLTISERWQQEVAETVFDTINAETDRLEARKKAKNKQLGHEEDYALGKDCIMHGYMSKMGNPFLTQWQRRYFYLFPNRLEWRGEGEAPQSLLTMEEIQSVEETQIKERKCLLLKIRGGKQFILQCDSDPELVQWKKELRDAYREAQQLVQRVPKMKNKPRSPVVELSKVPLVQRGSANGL

In the case of `CN(C(=O)CN1CCOCC1)c1ccc2sc3c(-c4cccc5c(=O)cc(N6CC7CCC(C6)O7)oc45)cccc3c2c1` [NU5455], the inhibition at 1 µM is reported as -2%.
